In article PMC6270727, “Anticholinesterase Inhibitory Activity of Quaternary Alkaloids from Tinospora crispa” (Molecules, 2014):
Like-named read-outs stand apart in the source and are kept apart here.

Molecular target: T1, acetylcholinesterase (AChE) from electric eels (type V-S) (Electrophorus electricus, UniProt O42275)
T1 construct: purchased Sigma-Aldrich (St. Louis, MO, USA) type V-S (catalogue number not given)
Experiment: Acetylcholinesterase (AChE) inhibitory assay, modified Ellman's colorimetric method, 96-well microplate
Format: biochemical
Settings: for AChE inhibitory activity in words: microplate assay

[1] = mean ± standard deviation of two independent experiments, Tris-HCl pH 8, absorbance at 405 nm, read-out: Acetylcholinesterase inhibitory activity IC50

T1 sequence (O42275 24-633): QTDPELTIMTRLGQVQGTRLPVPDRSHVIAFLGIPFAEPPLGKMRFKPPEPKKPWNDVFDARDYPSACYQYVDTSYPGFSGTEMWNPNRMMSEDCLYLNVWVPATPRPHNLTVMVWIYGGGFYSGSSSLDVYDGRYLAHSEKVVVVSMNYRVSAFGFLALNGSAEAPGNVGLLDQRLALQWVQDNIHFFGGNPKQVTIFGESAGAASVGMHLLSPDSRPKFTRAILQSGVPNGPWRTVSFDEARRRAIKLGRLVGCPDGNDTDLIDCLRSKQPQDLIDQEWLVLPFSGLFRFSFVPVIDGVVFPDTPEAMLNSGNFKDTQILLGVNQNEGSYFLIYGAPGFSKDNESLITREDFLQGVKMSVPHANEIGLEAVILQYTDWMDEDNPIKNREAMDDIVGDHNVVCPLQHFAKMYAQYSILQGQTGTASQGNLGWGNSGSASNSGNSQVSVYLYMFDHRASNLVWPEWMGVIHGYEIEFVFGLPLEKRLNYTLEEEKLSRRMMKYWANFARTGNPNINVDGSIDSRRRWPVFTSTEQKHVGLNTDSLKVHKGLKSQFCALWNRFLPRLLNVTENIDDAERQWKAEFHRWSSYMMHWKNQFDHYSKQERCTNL

Compound	IC50 [µM]	AChE inhibitory activity in words	IC50 [1] [µM]
COc1cc2c(cc1O)-c1cc3ccc(OC)c(OC)c3c[n+]1CC2 [Compound 3, columbamine]	48.1 ± 1.3	most active compound	
COc1ccc2c(c1O)-c1c(O)c(OC)cc3c1[C@H](C2)[N+](C)(C)CC3 [Compound 4, magnoflorine]		very weak or no inhibitory activity	
O=CN1CCc2cc3c(c4c2C1Cc1ccccc1-4)OCO3 (stereo not shown) [Compound 5, N-formylannonaine]			415.3 ± 2.7
COc1cc2c3c(c1OC)-c1ccccc1CC3N(C=O)CC2 (stereo not shown) [Compound 6, N-formylnornuciferine]		very weak or no inhibitory activity	564.6 ± 2.1
COc1cc(/C=C/C(=O)NCCc2ccc(O)cc2)ccc1O [Compound 7, N-trans-feruloyltyramine]		very weak or no inhibitory activity	
